Data: ChEMBL document CHEMBL1201862, “PubChem BioAssay data set” (2004)
The source made the active and inactive calls.

Experiments:
[1] = target: T1, Microphthalmia-associated transcription factor (Homo sapiens, UniProt O75030); test: TRPM1 promoter luciferase signal decrease, dose response, MITF inhibitor project, cell-based, SK-MEL-5, cherry-picked, set 3 (AID 493073); format: functional
T1 sequence (O75030 whole entry): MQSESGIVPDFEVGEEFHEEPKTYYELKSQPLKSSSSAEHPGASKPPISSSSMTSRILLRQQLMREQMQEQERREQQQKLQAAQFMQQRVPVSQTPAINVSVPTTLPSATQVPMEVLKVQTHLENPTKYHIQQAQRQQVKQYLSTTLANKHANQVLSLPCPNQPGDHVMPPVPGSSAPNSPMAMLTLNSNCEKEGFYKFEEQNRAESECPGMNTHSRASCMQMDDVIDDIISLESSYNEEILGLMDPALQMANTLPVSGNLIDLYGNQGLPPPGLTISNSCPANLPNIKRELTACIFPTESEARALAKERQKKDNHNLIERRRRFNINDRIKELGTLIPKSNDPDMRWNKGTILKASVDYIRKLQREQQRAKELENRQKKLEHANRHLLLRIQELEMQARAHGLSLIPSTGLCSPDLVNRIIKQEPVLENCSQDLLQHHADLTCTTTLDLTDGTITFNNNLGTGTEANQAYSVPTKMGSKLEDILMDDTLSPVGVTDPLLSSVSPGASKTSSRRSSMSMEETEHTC

[2] = test system: HEK293; test: cells; format: functional, cell-based; settings: Homo sapiens
[3] = inhibitors of HIV Env-driven cell fusion, dose response, cherry-pick (AID 652057); format: functional, cell-based
[4] = target: Nucleotide-binding oligomerization domain-containing protein 2 (Homo sapiens, UniProt Q9HC29); test: NOD2 signaling inhibitors, cell-based, luminescence, uHTS, HEK293 (AID 1566); format: functional
[5] = inhibitors of clade B AD8 Env fusion, dose response, cell-based, cherry-pick (AID 652062); format: functional;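 also: luciferase signal from cell-cell fusion driven by HIV-1 clade B AD8 Env; potency is for inhibitors of fusion seen as a drop in luminescence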
[6] = A2780 ovarian cancer cell cytotoxicity, dose response, cytotoxicity control, plate reader, dry powder samples (AID 743046); format: functional, cell-based
[7] = ZM109 Env clade C HIV-1 fusion inhibitors, dose response, HeLa effector, CEM target cells, luciferase, cherry-pick (AID 652058); format: functional, cell-based
[8] = cytotoxicity dependent on PAX8, dose response, cell-based, plate reader, dry powder (AID 743049); format: functional
[9] = NIH:OVCAR-3 ovarian cancer cell cytotoxicity, dose response, PAX8 inhibitor project, plate reader, dry powder samples (AID 743044); format: functional, cell-based
[10] = test system: A-375; test: A375 melanoma cell viability reduction, dose response, counter-screen for MITF modulator project, cherry-pick samples, set 2 (AID 540335); format: functional, cell-based; settings: Homo sapiens
[11] = test system: HEK293; test: NOD1 signaling inhibitors, primary screen, cell-based, luminescence, uHTS (AID 1578); format: functional; settings: Homo sapiens
[12] = test system: HEK293; test: cells; format: functional, cell-based; settings: Homo sapiens; remark: listed apart in the source
[13] = PAX5 activity inhibitors, dose response, selectivity assay for PAX8 inhibitor project, cell-based, plate reader, dry powder samples (AID 743047); format: functional;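 also: HEK293 cells carrying a Pax5 driven CD19 promoter luciferase reporter; potency of inhibitors that lower reporter luminescence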
[14] = CEM21 lymphoblast cell cytotoxicity, dose response, cytotoxicity control for viral fusion inhibitor project, CellTiter-Glo luminescence, cherry-picked (AID 652042); format: functional, cell-based;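 also: potency for signal decrease meaning cytotoxicity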
[15] = test system: HEK293; test: NOD2 signaling inhibitors in MDP-stimulated cells, cell-based, uHTS, luminescence (AID 2001); format: functional; settings: Homo sapiens
[16] = PAX2 cell-based inhibition, dose response, selectivity assay for PAX8 inhibitor project, plate reader, dry powder samples (AID 743048); format: functional;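 also: HEK293 cells carrying a WT1 promoter luciferase reporter driven by expressed Pax2; potency is for inhibition of Pax2 driven reporter signal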
[17] = cytotoxicity in COV434 cells, dose response, cytotoxicity control for PAX8 inhibitor project, cell-based, plate reader, dry powder, SA7 (AID 743145); format: functional
[18] = test system: INS1; test: beta cell apoptosis inhibitors, cytokine rescue, dose response, luminescence, retest (AID 449756); format: functional, cell-based; settings: Rattus norvegicus;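 also: cell death triggered by IL-1 beta plus TNF-alpha plus IFN-gamma mixture; protective hits raise ATP signal compared with cytokine alone wells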
[19] = off-target signal loss in HeLa-CEM21 co-culture – HeLa F-luc CTL cells, cherry-picked, counter-screen for HIV-1 Env fusion inhibitor project, dose response (AID 652040); format: functional, cell-based;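 also: potency for signal decrease marking cytotoxic or nonspecific inhibition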
[20] = test system: HEK293; test: cells; format: functional, cell-based; settings: Homo sapiens; remark: listed apart in the source
[21] = target: Paired box protein Pax-8 (Homo sapiens, UniProt Q06710); test: inhibitors of PAX8-driven TPO luciferase reporter, dose response, RMG-I cells, cherry-pick (AID 687027); format: functional, cell-based;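 also: luciferase reporter driven by Pax8 target thyroperoxidase promoter measured by SteadyGlo luminescence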
[22] = cytotoxicity in OV-90 ovarian cancer cells, dose response, PAX8 inhibitor project, cell-based, plate reader, dry powder, SA8 (AID 743149); format: functional
[23] = cells; format: functional, cell-based
[24] = test system: Vero; test: cells; format: functional, cell-based; settings: Chlorocebus sabaeus
[25] = target: T2, Trace amine-associated receptor 1 (Homo sapiens, UniProt Q96RJ0); test: Fluorescence-based cell-based high throughput dose response assay to identify agonists of the human trace amine associated receptor 1 (TAAR1).; format: functional
T2 sequence (Q96RJ0 whole entry): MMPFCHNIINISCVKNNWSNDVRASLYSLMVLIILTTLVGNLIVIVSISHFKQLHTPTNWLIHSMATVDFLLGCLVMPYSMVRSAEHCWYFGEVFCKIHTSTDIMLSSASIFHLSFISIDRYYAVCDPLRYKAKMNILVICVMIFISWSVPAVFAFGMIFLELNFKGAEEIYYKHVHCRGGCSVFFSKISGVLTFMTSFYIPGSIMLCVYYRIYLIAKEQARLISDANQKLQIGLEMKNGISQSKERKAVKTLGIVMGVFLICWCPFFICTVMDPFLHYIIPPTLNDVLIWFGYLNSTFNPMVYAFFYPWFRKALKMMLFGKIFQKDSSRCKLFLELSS

[26] = cells; format: functional, cell-based; remark: listed apart in the source
[27] = target: T2, Trace amine-associated receptor 1; test: Counterscreen for agonists of the human trace amine associated receptor 1 (hTAAR1): Fluorescence-based cell-based high throughput dose response assay to identify hTAAR1 agonist that also desensitize TAAR1 receptor response.; format: functional
[28] = target: Delta-type opioid receptor (Homo sapiens, UniProt P41143); test: Counterscreen for agonists of heterodimerization of the mu 1 (OPRM1) and delta 1 (OPRD1) opioid receptors: Luminescence-based cell-based high throughput dose response assay to identify agonists of OPRD1 homodimerization. [Related pubchem assays (depositor defined):AID504326, AID504355, AID504692, AID504904, AID504905]; format: functional
[29] = target: 5-hydroxytryptamine receptor 5A (Homo sapiens, UniProt P47898); test: Counterscreen for agonists of OPRM1-OPRD1 heterodimerization: luminescence-based cell-based high throughput dose response assay to identify agonists of 5-hydroxytryptamine (serotonin) 5A receptor (HTR5A). [Related pubchem assays (depositor defined):AID504326, AID504355, AID504692, AID504904, AID504905]; format: functional
[30] = target: T3, Short transient receptor potential channel 4 (Mus musculus, UniProt Q9QUQ5); test: mouse TRPC4 channel activators, dose response, cell-based, HEK293 TRPC4/mu-opioid, Fluo-4 calcium (AID 434937); format: functional
T3 sequence (Q9QUQ5 whole entry): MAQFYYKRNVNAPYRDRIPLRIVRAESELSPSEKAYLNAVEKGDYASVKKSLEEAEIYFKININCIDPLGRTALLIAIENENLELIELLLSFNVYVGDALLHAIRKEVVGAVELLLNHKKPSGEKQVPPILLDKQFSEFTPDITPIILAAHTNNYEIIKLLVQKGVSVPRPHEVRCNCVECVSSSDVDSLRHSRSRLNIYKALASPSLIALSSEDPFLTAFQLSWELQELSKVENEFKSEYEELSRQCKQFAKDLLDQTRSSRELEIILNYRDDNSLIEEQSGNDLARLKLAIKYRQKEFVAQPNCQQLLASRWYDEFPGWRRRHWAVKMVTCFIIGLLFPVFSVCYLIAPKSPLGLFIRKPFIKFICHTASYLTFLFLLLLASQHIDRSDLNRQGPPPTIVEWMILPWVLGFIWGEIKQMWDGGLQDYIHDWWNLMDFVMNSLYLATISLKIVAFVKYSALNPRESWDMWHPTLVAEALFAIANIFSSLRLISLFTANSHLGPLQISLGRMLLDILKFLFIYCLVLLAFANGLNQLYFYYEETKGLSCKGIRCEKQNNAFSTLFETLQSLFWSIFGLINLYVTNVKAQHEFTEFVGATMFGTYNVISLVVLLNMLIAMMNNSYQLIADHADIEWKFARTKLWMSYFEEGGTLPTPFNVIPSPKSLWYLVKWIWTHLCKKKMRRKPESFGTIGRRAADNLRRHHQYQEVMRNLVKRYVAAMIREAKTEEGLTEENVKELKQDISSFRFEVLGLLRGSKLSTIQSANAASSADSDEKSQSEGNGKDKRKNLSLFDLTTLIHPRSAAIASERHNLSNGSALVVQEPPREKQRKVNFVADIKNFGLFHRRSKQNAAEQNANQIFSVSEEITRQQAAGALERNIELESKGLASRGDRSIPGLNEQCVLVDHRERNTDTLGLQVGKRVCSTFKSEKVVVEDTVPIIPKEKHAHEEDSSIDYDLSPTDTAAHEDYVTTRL

[31] = target: Mu-type opioid receptor (Homo sapiens, UniProt P35372); test: Counterscreen for agonists of heterodimerization of the mu 1 (OPRM1) and delta 1 (OPRD1) opioid receptors: Luminescence-based cell-based high throughput dose response assay to identify agonists of OPRM1 homodimerization.; format: functional;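 also: U2OS cells expressing OPRM1 and beta-arrestin as split beta-galactosidase partners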
[32] = test system: HEK293; test: cytotoxicity in HEK293T NF-kB-Luc cells, SAR follow-up, cytotoxicity control for NF-kB activator project, cell-based, resazurin fluorescence (AID 493251); format: functional; settings: Homo sapiens
[33] = test system: HEK293; test: SAR Analysis of small molecule inhibitors of T-cell specific antigen receptor-induced NF-kB activation in a HEK-293T cell line using a luminescence assay - Set 2. [Related pubchem assays (depositor defined):AID435003, AID435012, AID489026]; format: functional, cell-based; settings: Homo sapiens
[34] = test system: Jurkat; test: SAR Analysis of small molecule inhibitors of T-cell specific antigen receptor-induced NF-kB activation in a Jurkat cell line using a luminescence assay - Set 2. [Related pubchem assays (depositor defined):AID435003, AID435012, AID465]; format: functional, cell-based; settings: Homo sapiens

Chain of Paired box protein Pax-8 (Q06710 whole entry): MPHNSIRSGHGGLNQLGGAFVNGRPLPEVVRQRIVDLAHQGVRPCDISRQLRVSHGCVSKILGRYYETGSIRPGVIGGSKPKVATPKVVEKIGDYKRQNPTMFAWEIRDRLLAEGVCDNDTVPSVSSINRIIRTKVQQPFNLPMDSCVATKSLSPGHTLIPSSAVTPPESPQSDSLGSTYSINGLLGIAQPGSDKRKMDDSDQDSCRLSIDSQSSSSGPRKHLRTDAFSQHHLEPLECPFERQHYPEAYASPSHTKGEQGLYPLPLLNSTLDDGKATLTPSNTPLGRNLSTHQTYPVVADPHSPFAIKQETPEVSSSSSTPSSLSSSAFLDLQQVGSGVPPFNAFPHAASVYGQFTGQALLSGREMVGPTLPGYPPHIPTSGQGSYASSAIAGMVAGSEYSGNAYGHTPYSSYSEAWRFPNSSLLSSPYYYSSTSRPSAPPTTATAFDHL
Chain of Mu-type opioid receptor (P35372 whole entry): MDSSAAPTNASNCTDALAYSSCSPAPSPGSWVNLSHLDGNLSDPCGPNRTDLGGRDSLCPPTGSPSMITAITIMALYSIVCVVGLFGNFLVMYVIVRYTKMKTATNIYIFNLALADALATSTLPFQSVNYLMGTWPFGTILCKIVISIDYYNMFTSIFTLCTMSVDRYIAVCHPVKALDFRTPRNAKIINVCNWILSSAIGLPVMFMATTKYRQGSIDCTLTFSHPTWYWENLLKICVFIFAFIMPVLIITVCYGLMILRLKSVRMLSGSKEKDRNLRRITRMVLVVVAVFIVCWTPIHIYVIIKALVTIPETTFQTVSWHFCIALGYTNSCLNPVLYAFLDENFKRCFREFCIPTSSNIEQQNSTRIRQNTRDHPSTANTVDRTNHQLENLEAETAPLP
Chain of Nucleotide-binding oligomerization domain-containing protein 2 (Q9HC29 whole entry, the tested form may be a part): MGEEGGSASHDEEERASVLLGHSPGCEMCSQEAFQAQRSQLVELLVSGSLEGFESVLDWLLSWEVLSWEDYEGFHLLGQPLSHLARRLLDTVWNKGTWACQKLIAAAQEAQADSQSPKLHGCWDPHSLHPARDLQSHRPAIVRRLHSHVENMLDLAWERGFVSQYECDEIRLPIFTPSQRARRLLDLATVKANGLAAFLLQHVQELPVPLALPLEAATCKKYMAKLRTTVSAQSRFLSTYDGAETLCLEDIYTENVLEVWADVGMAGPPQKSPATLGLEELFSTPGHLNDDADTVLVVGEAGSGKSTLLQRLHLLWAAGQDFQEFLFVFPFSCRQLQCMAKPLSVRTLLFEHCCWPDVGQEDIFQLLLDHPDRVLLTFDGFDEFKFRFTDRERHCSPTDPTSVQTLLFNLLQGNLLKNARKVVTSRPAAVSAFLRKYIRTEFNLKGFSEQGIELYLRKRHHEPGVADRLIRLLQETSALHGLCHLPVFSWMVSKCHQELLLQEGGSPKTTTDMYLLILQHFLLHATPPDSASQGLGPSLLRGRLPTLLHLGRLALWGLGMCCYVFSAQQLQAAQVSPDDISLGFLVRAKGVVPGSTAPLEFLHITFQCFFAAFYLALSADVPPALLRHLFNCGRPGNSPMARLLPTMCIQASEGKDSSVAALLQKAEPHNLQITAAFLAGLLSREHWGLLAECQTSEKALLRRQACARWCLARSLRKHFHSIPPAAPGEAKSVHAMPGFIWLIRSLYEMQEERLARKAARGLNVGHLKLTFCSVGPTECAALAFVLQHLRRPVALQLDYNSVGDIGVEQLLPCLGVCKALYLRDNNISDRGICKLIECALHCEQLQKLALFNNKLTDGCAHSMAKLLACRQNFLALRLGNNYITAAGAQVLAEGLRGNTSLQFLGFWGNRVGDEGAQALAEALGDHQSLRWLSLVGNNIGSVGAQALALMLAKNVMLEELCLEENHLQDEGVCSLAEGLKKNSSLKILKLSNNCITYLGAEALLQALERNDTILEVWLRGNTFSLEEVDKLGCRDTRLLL
Chain of Delta-type opioid receptor (P41143 whole entry): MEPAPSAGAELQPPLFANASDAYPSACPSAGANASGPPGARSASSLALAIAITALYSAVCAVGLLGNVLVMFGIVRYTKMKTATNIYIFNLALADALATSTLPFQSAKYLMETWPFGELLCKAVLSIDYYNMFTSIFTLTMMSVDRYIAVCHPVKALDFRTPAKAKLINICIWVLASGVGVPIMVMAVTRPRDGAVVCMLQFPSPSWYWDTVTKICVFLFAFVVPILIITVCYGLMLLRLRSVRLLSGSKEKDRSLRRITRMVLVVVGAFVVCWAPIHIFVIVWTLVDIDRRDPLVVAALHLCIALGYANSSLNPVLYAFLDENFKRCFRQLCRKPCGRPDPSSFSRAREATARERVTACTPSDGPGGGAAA
Chain of 5-hydroxytryptamine receptor 5A (P47898 whole entry): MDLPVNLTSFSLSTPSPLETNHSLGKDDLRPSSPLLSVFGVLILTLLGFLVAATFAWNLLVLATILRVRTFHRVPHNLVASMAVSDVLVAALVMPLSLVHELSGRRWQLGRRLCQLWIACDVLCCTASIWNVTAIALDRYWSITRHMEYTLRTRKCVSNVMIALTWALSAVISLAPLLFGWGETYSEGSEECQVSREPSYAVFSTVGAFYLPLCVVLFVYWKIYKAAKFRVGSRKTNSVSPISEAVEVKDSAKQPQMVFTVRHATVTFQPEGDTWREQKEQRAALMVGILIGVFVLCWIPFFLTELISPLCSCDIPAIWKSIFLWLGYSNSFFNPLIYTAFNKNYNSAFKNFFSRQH

## CCSCCc1nnc(NC(=O)Nc2cccc(C(F)(F)F)c2)s1
[1]
  AC50: 8.99 µM (active)
[2]
  IC50: 2.57 µM (active)
[3]
  AC50: 5.97 µM (active)
[4]
  EC50: 15 µM (active)
[5]
  AC50: 7.84 µM (active)
[6]
  AC50: 8.04 µM (active)
[7]
  AC50: 4.07 µM (active)
[8]
  AC50: 23.1 µM (active)
[9]
  AC50: 27.4 µM (active)
[10]
  AC50: 6.62 µM (active)
[11]
  EC50: 2.16 µM (active)
[12]
  IC50: > 20 µM (inactive)
[13]
  AC50: 5.02 µM (active)
[14]
  AC50: 5.2 µM (active)
[15]
  IC50: 2.68 µM (active)
[16]
  AC50: 5.05 µM (active)
[17]
  AC50: 35.2 µM (active)
[18]
  AC50: 3.91 µM (active)
[19]
  AC50: 3.56 µM (active)
[20]
  IC50: 9.13 µM (active)
[21]
  AC50: 7.31 µM (active)
[22]
  AC50: > 100 µM (inactive)

## CCCCOc1ccc(C(=O)Nc2ccc(N3CCN(C)CC3)cc2)cc1
[23]
  EC50: > 29.9 µM (inactive)
[24]
  IC50: 24.8 µM (active)
[25]
  EC50: 10.2 µM (inactive)
[26]
  IC50: > 29.9 µM (inactive)
[27]
  IC50: > 29.9 µM (inactive)

## OCC1(CCc2ccccc2)CCN(Cc2cccn2-c2cccnc2)CC1
[28]
  EC50: > 92.5 µM (inactive)
[29]
  EC50: > 92.5 µM (inactive)
[30]
  EC50: 0.149 µM (active)
[31]
  EC50: 52.6 µM (inactive)

## CC(=O)N1CCc2cc(NC(=O)c3ccc([N+](=O)[O-])o3)ccc21
[32]
  IC50: > 80 µM (inactive)
[33]
  IC50: 50.5 µM (inactive)
[34]
  IC50: 49.5 µM (inactive)
